In patent publication US20090209426A1, “HERBICIDAL MIXTURE” (priority 2006, published 2009):

Tested on: Digitaria nuda
Test: Test A: greenhouse postemergence herbicidal effect on Digitaria nuda, visual rating 21 DAT
Assay type: in vivo
Description: Square plastic pots (10 cm on each side) were filled to the rim with a Redi-earth® (Sun Gro Horticulture, Bellevue, Wash.) planting medium containing 55-65% of Canadian sphagnum peat moss, horticultural grade vermiculite, dolomitic limestone and a wetting agent. The soil was tamped firm to a uniform level of 2.5 cm below the rim of the pot. A measured amount of Digitaria nuda seed was scattered on the soil surface of each pot. Seeded pots were covered with approximately 50 mL of the same planting media, tamped, and set out on a greenhouse bench.
The pots were watered thoroughly at once and then as needed with a dilute balanced N—P—K fertilizer solution to provide 218 ppm nitrogen. Artificial lighting was used to supplement natural light to produce a 14-hour photoperiod. Greenhouse temperatures were targeted for 27° C. during the daytime and 21° C. at night. Once the plants reached their appropriate growth stage, the plants were sorted into test units prior to the herbicide application. Digitaria nuda was 5 to 7 cm in height and at the 3-leaf stage at the time of application.
Test chemicals included diuron in the form of KARMEX® Herbicide, which is a 80 weight (wt.) % wettable granule formulation, a mixture of diuron with hexazinone in the form of DUPONT™ K4™ Herbicide, which a granule formulation containing 468 g of diuron and 132 g of hexazinone per kg of formulation, another mixture of diuron with hexazinone in the form of ADVANCE™ Herbicide, which is a wettable granule formulation containing 533 g of diuron and 67 g of hexazinone per kg of formulation, and mesotrione in the form of the commercial product CALLISTO® Herbicide, which is a 40 weight-volume (wt.-vol.) % suspension concentrate containing 400 g of mesotrione per liter of formulation. The application rates for this test were selected based on the recommended use rate of each compound. Application rates of diuron were 1800 g a.i./ha alone from KARMEX® Herbicide, 936 g a.i./ha from DUPONT™ K4™ Herbicide in combination with 264 g a.i./ha of hexazinone, and 1599 g a.i./ha from ADVANCE™ Herbicide in combination with 201 g a.i./ha of hexazinone. […] Furthermore diuron was tested alone and together with hexazinone in combination with mesotrione at these application rates.
The herbicides were diluted in a measured amount of carrier solution to make stock solutions. The carrier solution was water containing 0.25% v/v of non-ionic adjuvant X-77. The stock solutions were all mixed for 10 minutes before aliquots were taken to make individual treatment solutions. Vials were then brought up to final spray volume of 24 mL. The treatments were sprayed at a pressure of 276 kPa through a T-Jet 8002E (Spraying Systems Co., Wheaton, Ill.) flat fan nozzle onto the surface of the plants in a stationary belt sprayer system calibrated to deliver 280 L/Ha. Treatments were replicated three times.
The sprayed plants were placed in the greenhouse for observation; height and leaf stages were then recorded. Plants were maintained by watering as needed and in the same manner in which they were propagated with respect to nutrition, light, and day length. Visual evaluations were made 21 days after treatment (DAT). A numerical rating system was used to describe the visual response of each treatment on a scale of 0 to 100. Numerical ratings were expressed as the percent effect as compared to the control plants, calculated as the mean of the three replicates. Zero (0%) indicates no visual response, and 100% indicates plant death or a moribund state expected to rapidly end in death.
Colby's equation was used to calculate the expected additive herbicidal effect of the mixtures of mesotrione with diuron, alone and in combination with hexazinone. Colby's equation (S. R. Colby, “Calculating Synergistic and Antagonistic Responses of Herbicide Combinations,” Weeds, 15(1), pp 20-22 (1967)) calculates the expected additive effect of herbicidal mixtures, and for two active ingredients is of the form: […]

SMILES | Herbicidal Effect Observed (diuron 1800, hexazinone 0, mesotrione 0 g a.i./ha (KARMEX), mean of 3 replicates) [%] | Herbicidal Effect Observed (mesotrione 5 g a.i./ha alone (CALLISTO)) [%] | Herbicidal Effect Observed (mesotrione 10 g a.i./ha alone) [%] | Herbicidal Effect Observed (mesotrione 20 g a.i./ha alone) [%] | Herbicidal Effect Observed (mesotrione 30 g a.i./ha alone) [%] | Herbicidal Effect Observed (mesotrione 40 g a.i./ha alone) [%] | Herbicidal Effect Observed (mesotrione 60 g a.i./ha alone) [%] | Herbicidal Effect Observed (mesotrione 90 g a.i./ha alone) [%]
CN(C)C(=O)Nc1ccc(Cl)c(Cl)c1 [Diuron, N′-(3,4-dichlorophenyl)-N,N-dimethylurea] | 20 |  |  |  |  |  |  | 
CS(=O)(=O)c1ccc(C(=O)C2C(=O)CCCC2=O)c([N+](=O)[O-])c1 [Mesotrione, 2-[4-(methylsulfonyl)-2-nitrobenzoyl]-1,3-cyclohexanedione] |  | 3 | 17 | 33 | 50 | 53 | 73 | 88
